This is an account of results in PMC6017645, “Substrate Binding Switches the Conformation at the Lynchpin Site in the Substrate-Binding Domain of Human Hsp70 to Enable Allosteric Interdomain Communication” (Molecules : A Journal of Synthetic Chemistry and Natural …, 2018).

The target in test [1] is T1, SBD(∆CDE)-y of human Hsp70 (Homo sapiens, UniProt P0DMV8, L542Y).
T1 construct: We solved the solution structure of SBD(∆CDE) comprising residues 382–564; His6 (N, cleaved yes); made in house; host or cells: E. coli BL21(DE3)
Nature of the test: Binding kinetics estimated from simulation of NMR exchange. On the procedure:
This gives a kon = 2.3 × 10^4 M^−1 s^−1, which is consistent with the kinetics for the lidless SBD of DnaK in binding to its target peptide (kon = 2 × 10^4 M^−1 s^−1 and koff = 12.5 s^−1).
The NMR titration experiments were performed by acquiring a series of 2D ^1H-^15N HSQC spectra of the protein in 50 mM potassium phosphate (pH 7.0), 50 mM KCl and 10 mM DTT at 310 K (37 °C). The NR-peptide (0.075 mM, 0.15 mM, 0.30 mM, 0.60 mM, 1.2 mM, 3.0 mM and 6.0 mM) was titrated into a sample containing 0.3 mM ^15N labeled SBD(∆CDE)-y. Data processing and analysis were performed with NMRPipe and KUJIRA [41], respectively. The dissociation constant, KD, was estimated by fitting Equation (1) to the bound fraction of SBD(∆CDE)-y, fbound: (1) fbound([L]total)=1−I([L]total)/I0=([P]total+[L]total+KD)−([P]total+[L]total+KD)^2−4[P]total[L]total/2[P]total where [L]total and [P]total are the total concentrations of NR-peptide and SBD(∆CDE)-y, respectively, and I and I0 are the signal intensities with and without NR-peptide. Each signal intensity was measured by a similar procedure described in Section 4.3. […] Uncertainties in the dissociation constant was estimated by Monte Carlo simulations on the basis of the uncertainty for each signal intensity evaluated using the root-mean-square deviation value on a spectral region with no signals, which was obtained by the NMRPipe built-in module.

For test [2], the system named is SBD in Hsp70 with covalently modified E444. The following applies: PDB ID: 4WV7; ref [29]; cited from earlier work. An excerpt:
E444 in Hsp70 is accessible by NBD in the apo-form SBD(∆CDE)-y, whereas it is covered by the Lα,β loop and therefore this interaction is hindered in the substrate-bound form (Figure 7a,b). This is consistent with the observation for Q442 in DnaK, as described above.

Test [3] has as its target T2, SBD(∆CDE)-y, substrate-binding domain of human Hsp70 (HSPA1A) lacking αC, αD and αE, with the L542Y mutation (human, UniProt P0DMV8 382-564, L542Y).
T2 construct: Cloned in pET16b (NdeI/XhoI); 15N- or 13C/15N-labelled for NMR, unlabelled (LB medium) for ITC; also called mutant SBD; apo-form SBD; source: E. coli BL21(DE3), purified (HisTrap FF, Factor Xa cleavage, HiTrap Q FF); not shown: His6, N-terminal, cleaved
Kind of test: ITC; 1.5 μL injections of 5 mM NR-peptide into 200 μL of 0.1 mM SBD(∆CDE)-y; single-site fit with the stoichiometry fixed as n = 1; triplicate. The following applies: both partners purified. Background: ITC needs no label: the signal is the heat of the interaction.

Test [4] addresses T3, SBD(∆CDE) (S537C/L542Y) mutant, labelled at residue 537 with MTSL or its diamagnetic analog (human, UniProt P0DMV8 382-564, S537C | L542Y, MTSL nitroxide radical, or the diamagnetic MTSL analog, on C537).
T3 construct: 15N-labelled for NMR; PDB 5XIR is the parent SBD(∆CDE)-y without S537C; also called SBD(∆CDE)-y harboring a S537C mutation; SBD(∆CDE)-y with spin labeling at residue 537; source: E. coli BL21(DE3), purified (as in Section 4.1), then labelled with MTSL; not shown: His6, N-terminal, cleaved
Kind of test: NMR paramagnetic relaxation enhancement; 2D 1H-15N HSQC of 0.5 mM spin-labelled SBD(∆CDE) (S537C/L542Y) with/without 5.0 mM NR-peptide; 50 mM potassium phosphate pH 7.0, 50 mM KCl, 37 °C. The following applies: both partners purified.

Test [5] has as its target T2, SBD(∆CDE)-y, substrate-binding domain …. Nature of the test: NMR titration; 2D 1H-15N HSQC; NR-peptide (0.075-6.0 mM) titrated into 0.3 mM 15N-labelled SBD(∆CDE)-y; 50 mM potassium phosphate pH 7.0, 50 mM KCl, 10 mM DTT, 37 °C; slow exchange; global fit of signal intensities of 28 residues. The following applies: both partners purified.

T1 sequence (P0DMV8 382-564 L542Y): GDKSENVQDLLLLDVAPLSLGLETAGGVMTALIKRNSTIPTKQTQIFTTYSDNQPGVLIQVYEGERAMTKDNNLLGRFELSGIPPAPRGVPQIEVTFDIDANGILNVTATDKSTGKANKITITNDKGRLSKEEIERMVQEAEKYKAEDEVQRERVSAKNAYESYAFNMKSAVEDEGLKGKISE
T2 sequence (P0DMV8 382-564 L542Y): as above
T3 sequence (P0DMV8 382-564 S537C/L542Y): as the sequence (P0DMV8 382-564 L542Y) above, with S156C counted along it

On to `CC(C)C[C@H](NC(=O)[C@H](CC(C)C)NC(=O)[C@H](CCCNC(=N)N)NC(=O)[C@@H](N)CC(N)=O)C(=O)N[C@@H](CC(C)C)C(=O)N[C@H](C(=O)NCC(=O)O)[C@@H](C)O` [NR-peptide], for which the on-rate (kon) in test [1] (from koff 30 s^−1 and KD = 1.3 mM) is 23000 M⁻¹ s⁻¹. The dissociation rate constant (koff) in test [1] (simulation using average R2 rate 21 s^−1 and KD = 1.3 mM, SBD(∆CDE)-y 0.3 mM, peptide 3.0 mM, read-out: maximum koff) is at most 30 s⁻¹.
On to `C=CC1=CC[C@H]2[C@@H](C[C@@H](O)[C@@]3(O)[C@@]4(C)C(=O)O[C@H]4CC[C@]23C)[C@H]1C` [novolactone], for which the “effect of covalent E444 modification on interdomain interactions” value in test [2] is recorded as “sterically blocks the interdomain interactions”.

B1: NR-peptide (peptide)
peptide: NRLLLTG
notes: Model client peptide of Hsp70; also called NRLLLTG; client-peptide
Take B1: the Kd is 1500 µM in test [3] and 1300 µM in test [5]. In addition, the binding result in test [4] is “binds”.

A word on the kon: it is the rate constant with which the complex forms. As usually defined, the koff is the rate constant with which the complex falls apart. Usually Kd stands for the free concentration of one partner at which half of the binding sites on the other are occupied at equilibrium, for simple one-to-one binding. A high value points to lower affinity.
